Laboratory results reported in ChEMBL document CHEMBL1201862, “PubChem BioAssay data set” (2004).
Calls of active or inactive are those of the source.

Experiments:
[1] = target: T1, Small ubiquitin-related modifier 1 (Homo sapiens, UniProt P63165); assay: SUMO1 protein-protein binding blockers, potency – biochemical, FRET, dose response (AID 624383); assay type: functional; conditions: read-out: IC50_Mean
[2] = target: T1, Small ubiquitin-related modifier 1; assay: SUMO1 protein interaction blockers, potency – biochemical, fluorescence polarization, uHTS hits, dose response (AID 624382); assay type: functional; conditions: read-out: IC50_Mean
[3] = target: DNA dC->dU-editing enzyme APOBEC-3A (Homo sapiens, UniProt P31941); assay: Dose Response confirmation of small molecule APOBEC3A DNA Deaminase Inhibitors via a fluorescence-based single-stranded DNA deaminase assay. [Related pubchem assays (depositor defined):AID493011, AID493024]; assay type: functional
Sequence of DNA dC->dU-editing enzyme APOBEC-3A (P31941 whole entry): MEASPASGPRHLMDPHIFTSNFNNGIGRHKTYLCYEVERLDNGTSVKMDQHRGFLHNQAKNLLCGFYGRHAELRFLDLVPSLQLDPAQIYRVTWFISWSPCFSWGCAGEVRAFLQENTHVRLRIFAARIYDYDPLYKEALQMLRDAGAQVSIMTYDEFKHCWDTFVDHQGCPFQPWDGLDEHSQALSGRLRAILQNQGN

[4] = target: DNA dC->dU-editing enzyme APOBEC-3G (Homo sapiens, UniProt Q9HC16); assay type: functional;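 note: Dose-response counterscreen measuring inhibition of APOBEC3G DNA deaminase activity, run while confirming APOBEC3A inhibitors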
Sequence of DNA dC->dU-editing enzyme APOBEC-3G (Q9HC16 whole entry, the tested form may be a part): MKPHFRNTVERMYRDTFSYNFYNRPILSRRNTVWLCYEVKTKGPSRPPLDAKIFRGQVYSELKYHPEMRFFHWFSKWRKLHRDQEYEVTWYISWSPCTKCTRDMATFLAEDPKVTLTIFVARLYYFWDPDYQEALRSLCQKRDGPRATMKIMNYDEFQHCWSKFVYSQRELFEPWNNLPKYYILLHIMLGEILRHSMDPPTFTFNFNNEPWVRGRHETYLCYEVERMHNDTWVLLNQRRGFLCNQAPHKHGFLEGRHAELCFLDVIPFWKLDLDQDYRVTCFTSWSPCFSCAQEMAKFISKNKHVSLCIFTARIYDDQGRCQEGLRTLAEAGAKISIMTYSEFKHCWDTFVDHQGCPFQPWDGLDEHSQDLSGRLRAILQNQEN

[5] = target: T2, Carboxy-terminal domain RNA polymerase II polypeptide A small phosphatase 1 (Homo sapiens, UniProt Q9GZU7); assay: CTDSP1 inhibitors, concentration-response, biochemical, absorbance readout, ultra-high-throughput screen actives (AID 540297); assay type: functional
T2 sequence (Q9GZU7 whole entry): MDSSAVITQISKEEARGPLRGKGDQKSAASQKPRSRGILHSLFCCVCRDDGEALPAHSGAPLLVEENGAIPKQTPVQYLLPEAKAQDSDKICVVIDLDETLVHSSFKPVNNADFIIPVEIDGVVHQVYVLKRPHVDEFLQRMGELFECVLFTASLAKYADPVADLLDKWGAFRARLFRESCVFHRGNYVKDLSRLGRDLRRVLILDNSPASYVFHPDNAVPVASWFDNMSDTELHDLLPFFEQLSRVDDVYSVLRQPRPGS

Vero = assay: viability of Vero cells under compound – cytotoxicity control for flavivirus capping enzyme inhibitors (AID 588742); assay type: functional; conditions: Chlorocebus sabaeus
[6] = target: Long-chain-fatty-acid--AMP ligase FadD28 (Mycobacterium tuberculosis, UniProt P9WQ59); assay: Fluorescence polarization aasay to screen for inhibitors that compete for the binding of FadD28 to a bisubstrate Measured in Biochemical System Using Plate Reader - 2147-01_Inhibitor_Dose_CherryPick_Activity.; assay type: functional, Mycobacterium tuberculosis H37Rv
Sequence of Long-chain-fatty-acid--AMP ligase FadD28 (P9WQ59 whole entry, the tested form may be a part): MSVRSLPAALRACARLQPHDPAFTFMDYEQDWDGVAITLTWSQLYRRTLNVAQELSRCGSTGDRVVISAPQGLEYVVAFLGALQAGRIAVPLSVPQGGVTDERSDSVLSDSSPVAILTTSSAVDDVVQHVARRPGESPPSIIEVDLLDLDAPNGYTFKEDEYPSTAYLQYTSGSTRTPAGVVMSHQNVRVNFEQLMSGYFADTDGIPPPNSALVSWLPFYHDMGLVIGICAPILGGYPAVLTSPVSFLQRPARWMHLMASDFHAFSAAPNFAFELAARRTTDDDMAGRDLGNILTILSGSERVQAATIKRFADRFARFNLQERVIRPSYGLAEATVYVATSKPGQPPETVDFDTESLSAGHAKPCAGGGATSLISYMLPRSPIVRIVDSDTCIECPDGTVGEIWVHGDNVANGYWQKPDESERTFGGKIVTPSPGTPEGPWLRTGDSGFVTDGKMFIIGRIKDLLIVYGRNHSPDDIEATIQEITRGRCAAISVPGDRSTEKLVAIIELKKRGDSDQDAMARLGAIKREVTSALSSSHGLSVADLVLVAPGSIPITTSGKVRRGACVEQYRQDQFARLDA

[7] = target: T3, Polyadenylate-binding protein 1 (Homo sapiens, UniProt P11940); assay: MLLE domain peptide-binding blockers, IC50 – biochemical, fluorescence polarization, FITC-PAM2 peptide, dose response (AID 602259); assay type: functional; conditions: read-out: IC50_Mean
T3 sequence (P11940 whole entry, the tested form may be a part): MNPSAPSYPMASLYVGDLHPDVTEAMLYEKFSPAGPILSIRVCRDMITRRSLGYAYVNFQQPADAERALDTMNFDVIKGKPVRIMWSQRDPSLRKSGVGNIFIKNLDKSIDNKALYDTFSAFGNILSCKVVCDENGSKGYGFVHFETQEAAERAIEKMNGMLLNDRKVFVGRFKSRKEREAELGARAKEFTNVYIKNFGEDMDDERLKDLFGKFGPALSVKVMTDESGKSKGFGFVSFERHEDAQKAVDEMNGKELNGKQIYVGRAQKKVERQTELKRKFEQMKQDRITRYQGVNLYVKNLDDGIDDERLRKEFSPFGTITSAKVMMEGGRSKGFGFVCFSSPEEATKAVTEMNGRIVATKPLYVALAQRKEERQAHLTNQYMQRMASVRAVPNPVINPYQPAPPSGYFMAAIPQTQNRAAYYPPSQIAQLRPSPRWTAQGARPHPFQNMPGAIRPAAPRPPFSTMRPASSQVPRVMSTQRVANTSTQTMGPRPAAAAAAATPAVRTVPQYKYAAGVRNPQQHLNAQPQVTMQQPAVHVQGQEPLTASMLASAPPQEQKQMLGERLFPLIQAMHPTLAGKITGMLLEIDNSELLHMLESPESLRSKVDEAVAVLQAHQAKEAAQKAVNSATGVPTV

Genome polyprotein = Genome polyprotein (dengue virus type 2, UniProt P29990); assay: flavivirus cap methylation enzyme inhibition – biochemical, confirmation dose response, primary screen (AID 588689); assay type: functional
Sequence of Genome polyprotein (P29990 2492-3391 limits assumed): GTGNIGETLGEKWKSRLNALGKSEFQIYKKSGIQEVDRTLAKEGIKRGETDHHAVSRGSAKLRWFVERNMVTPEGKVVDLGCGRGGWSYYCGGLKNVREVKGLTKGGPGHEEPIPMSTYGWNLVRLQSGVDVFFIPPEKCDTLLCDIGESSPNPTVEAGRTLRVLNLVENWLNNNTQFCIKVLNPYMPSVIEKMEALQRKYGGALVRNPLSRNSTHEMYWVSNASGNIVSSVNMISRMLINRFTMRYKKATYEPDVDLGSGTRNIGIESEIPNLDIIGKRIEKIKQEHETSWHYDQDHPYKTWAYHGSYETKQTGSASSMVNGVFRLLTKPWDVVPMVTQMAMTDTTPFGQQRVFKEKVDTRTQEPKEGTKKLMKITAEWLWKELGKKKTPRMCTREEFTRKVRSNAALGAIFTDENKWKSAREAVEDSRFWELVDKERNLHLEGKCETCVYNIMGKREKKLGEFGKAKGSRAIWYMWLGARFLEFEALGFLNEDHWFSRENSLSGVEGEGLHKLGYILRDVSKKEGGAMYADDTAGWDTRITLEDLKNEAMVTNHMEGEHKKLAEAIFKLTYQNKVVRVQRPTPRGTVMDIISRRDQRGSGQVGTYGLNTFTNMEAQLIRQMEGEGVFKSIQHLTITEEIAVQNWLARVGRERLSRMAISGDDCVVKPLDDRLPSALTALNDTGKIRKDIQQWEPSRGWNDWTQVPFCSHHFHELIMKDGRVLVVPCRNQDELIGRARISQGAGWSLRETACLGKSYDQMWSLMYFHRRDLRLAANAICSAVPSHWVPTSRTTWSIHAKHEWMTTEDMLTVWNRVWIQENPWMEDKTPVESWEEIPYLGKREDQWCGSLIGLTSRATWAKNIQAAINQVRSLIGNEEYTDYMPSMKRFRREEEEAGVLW

[8] = target: T3, Polyadenylate-binding protein 1; assay: MLLE binding blockers, Cy5 peptide tracer – biochemical, fluorescence polarization, Cy5-PAM2 peptide, secondary, miRNA deadenylation inhibitor project, dose response (AID 602260); assay type: functional; conditions: read-out: IC50_Mean
Paired box protein Pax-8 = Paired box protein Pax-8 (Homo sapiens, UniProt Q06710); assay: PAX8 transcriptional activity inhibition in RMG-I – RMG-I cells, luciferase, cherry-pick, dose response (AID 687027); assay type: functional, cell-based;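 note: luciferase reporter driven by Pax8 target thyroperoxidase promoter measured by SteadyGlo luminescence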
Sequence of Paired box protein Pax-8 (Q06710 whole entry): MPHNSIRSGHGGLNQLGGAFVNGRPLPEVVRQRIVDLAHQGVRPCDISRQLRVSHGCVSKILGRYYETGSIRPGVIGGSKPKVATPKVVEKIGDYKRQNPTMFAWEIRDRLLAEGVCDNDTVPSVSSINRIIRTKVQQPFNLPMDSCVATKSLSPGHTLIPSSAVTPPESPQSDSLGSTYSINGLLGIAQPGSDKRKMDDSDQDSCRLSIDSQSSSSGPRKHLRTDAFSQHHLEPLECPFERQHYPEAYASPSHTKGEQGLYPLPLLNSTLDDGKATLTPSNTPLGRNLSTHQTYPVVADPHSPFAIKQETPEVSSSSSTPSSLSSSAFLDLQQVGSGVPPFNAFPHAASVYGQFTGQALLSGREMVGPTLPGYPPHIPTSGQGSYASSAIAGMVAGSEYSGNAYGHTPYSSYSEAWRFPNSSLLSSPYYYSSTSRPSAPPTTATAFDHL

[9] = OVCAR-3 cell viability loss – plate reader, dry powder samples, PAX8 inhibitor project, dose response (AID 743044); assay type: functional, cell-based
[10] = OVCAR8 cell viability loss – plate reader, dry powder samples, PAX8 project, dose response (AID 743197); assay type: functional, cell-based; conditions: OVCAR-8
NS3 = NS3 (Hepatitis C virus, UniProt A3EZJ3); assay: NS3h DNA-binding inhibition IC50 – biochemical, fluorescence polarization, ChemBridge library, dose response (AID 743264)
Sequence of NS3 (A3EZJ3 whole entry): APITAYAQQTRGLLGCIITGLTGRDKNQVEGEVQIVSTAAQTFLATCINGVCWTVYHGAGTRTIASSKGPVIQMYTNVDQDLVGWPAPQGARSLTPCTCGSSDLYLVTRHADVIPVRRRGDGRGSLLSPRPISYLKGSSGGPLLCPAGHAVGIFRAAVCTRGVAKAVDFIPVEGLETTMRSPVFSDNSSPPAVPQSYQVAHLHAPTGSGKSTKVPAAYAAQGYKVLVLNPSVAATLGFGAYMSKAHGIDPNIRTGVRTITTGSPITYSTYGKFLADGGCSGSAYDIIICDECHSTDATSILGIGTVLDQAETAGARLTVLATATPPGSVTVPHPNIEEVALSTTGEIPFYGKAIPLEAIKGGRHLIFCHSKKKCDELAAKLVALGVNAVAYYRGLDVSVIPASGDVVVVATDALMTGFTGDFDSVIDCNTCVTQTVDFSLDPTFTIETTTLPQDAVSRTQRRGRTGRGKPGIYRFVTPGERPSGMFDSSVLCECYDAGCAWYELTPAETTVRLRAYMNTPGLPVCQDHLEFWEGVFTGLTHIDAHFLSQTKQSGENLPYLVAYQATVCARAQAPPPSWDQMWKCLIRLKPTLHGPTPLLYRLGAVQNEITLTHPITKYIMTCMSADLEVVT

cells = assay type: functional, cell-based
[11] = target: T4, Nuclear receptor subfamily 0 group B member 1 (Homo sapiens, UniProt P51843); assay type: functional, cell-based;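 note: HEK293T cells transfected with SF-1 and DAX-1 plus StAR promoter luciferase reporter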
T4 sequence (P51843 whole entry): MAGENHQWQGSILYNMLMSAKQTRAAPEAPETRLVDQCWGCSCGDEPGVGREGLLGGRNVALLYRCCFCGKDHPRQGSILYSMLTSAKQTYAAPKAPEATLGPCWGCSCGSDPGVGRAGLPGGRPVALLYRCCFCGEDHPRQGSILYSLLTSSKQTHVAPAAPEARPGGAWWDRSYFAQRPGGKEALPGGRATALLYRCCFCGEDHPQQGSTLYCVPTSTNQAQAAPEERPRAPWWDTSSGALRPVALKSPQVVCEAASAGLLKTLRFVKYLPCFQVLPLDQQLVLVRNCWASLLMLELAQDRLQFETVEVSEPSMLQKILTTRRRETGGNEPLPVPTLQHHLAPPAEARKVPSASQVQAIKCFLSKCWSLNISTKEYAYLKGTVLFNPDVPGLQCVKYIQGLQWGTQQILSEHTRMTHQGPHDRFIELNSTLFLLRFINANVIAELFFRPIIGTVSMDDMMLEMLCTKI

[12] = target: T5, Low molecular weight phosphotyrosine protein phosphatase (Homo sapiens, UniProt P24666); assay type: functional; conditions: read-out: IC50_Mean
T5 sequence (P24666 whole entry): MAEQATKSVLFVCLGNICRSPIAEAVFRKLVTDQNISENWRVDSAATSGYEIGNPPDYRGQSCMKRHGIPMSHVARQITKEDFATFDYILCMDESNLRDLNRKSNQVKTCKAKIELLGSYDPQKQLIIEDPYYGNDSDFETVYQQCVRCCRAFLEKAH

[13] = target: T5, Low molecular weight phosphotyrosine protein phosphatase; assay type: functional; conditions: read-out: IC50_Mean; remark: listed apart in the source
[14] = target: Disintegrin and metalloproteinase domain-containing protein 17 (Homo sapiens, UniProt P78536); assay: exosite inhibitors of ADAM17, dose response, biochemical (AID 743260)
Sequence of Disintegrin and metalloproteinase domain-containing protein 17 (P78536 whole entry, the tested form may be a part): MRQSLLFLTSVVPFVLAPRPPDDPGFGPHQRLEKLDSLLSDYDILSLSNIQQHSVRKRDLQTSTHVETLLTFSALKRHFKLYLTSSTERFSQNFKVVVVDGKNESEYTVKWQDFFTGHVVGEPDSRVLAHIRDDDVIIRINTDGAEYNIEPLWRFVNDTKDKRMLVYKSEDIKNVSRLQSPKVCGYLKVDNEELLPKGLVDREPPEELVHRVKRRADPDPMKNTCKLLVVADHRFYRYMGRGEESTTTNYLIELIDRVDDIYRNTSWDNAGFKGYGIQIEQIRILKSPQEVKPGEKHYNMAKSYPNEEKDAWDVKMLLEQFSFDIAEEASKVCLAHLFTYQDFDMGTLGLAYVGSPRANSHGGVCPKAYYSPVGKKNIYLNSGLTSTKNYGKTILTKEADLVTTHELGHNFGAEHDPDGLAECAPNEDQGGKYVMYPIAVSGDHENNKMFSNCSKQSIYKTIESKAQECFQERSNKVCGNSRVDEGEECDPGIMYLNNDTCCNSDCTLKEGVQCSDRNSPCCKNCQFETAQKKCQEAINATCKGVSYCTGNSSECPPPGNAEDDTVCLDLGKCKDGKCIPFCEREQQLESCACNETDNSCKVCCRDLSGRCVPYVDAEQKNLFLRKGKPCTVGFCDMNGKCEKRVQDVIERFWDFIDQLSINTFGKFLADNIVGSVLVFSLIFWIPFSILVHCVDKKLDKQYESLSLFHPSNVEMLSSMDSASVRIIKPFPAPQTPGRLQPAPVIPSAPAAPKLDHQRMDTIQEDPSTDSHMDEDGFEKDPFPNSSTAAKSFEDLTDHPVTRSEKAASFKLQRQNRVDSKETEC

[15] = blockers of bursicon-stimulated LGR2 cAMP reporter – cell-based, HEK293, CRE-luciferase reporter, cherry pick, set 2, dose response (AID 743343); assay type: functional;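 note: transfected cells were stimulated with diluted bursicon conditioned medium after compound addition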
[16] = viability loss in HEK293 cells – cell-based, plate reader, cherry-picked samples, cytotoxicity control, dose response (AID 743446); assay type: functional
[17] = A549 cell cytotoxicity, dose response, cytotoxicity control, plate reader, cherry-pick, antagonist series (AID 743412); assay type: functional, cell-based
[18] = toxicity toward HepG2 liver cells – cell-based, plate reader, cherry-pick, antagonist series, cytotoxicity control, dose response (AID 743416); assay type: functional
[19] = blockade of melanocortin 4 receptor signaling – cell-based, plate reader, cherry pick, counter-screen for LGR2 antagonist project, dose response (AID 743444); assay type: functional;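 note: transfected HEK 293 cells stimulated with alpha-MSH peptide; potency of inhibitors of the alpha-MSH evoked signal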

T1 sequence (P63165 whole entry): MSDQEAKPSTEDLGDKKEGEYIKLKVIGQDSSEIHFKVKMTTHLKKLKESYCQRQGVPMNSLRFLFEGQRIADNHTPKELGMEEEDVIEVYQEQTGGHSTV

With `O=C(COC(=O)c1ccc(F)c(S(=O)(=O)N2CCOCC2)c1)Nc1ccc2[nH]c(=O)[nH]c2c1` the IC50 [1] was 20.5 µM (inactive), the IC50 [2] was > 66.6 µM (inactive) and the IC50 [3] was 16.1 µM (active). The IC50 [4] was 25.9 µM (active).
In the case of `O=C(O)c1ccc2c(c1)C(=O)/C(=C/c1ccccc1)C2=O`, the IC50 [5] is reported as 3.5 µM (active), the CC50 (Vero) is reported as > 40 µM (active) and the AC50 [6] is reported as 37.7 µM (active). The IC50 [7] was > 66 µM (inactive), the IC50 (Genome polyprotein) was 12.2 µM (active) and the IC50 [8] was > 66 µM (inactive).
With `C[C@@H]1CCCCO[C@H](CN(C)S(=O)(=O)c2ccccc2)[C@H](C)CN([C@@H](C)CO)C(=O)c2cc(NS(=O)(=O)c3ccc(Cl)cc3)ccc2O1` the AC50 (Paired box protein Pax-8) was 6.18 µM (active), the AC50 [9] was 46.7 µM (active) and the AC50 [10] was > 70 µM (inactive).
With `CC(=O)N(C)C1=C(Cl)C(=O)c2ccccc2C1=O` the IC50 (NS3) was 20.4 µM (inactive).
For `O=C(Nc1ccc(Cl)cc1)c1ccc2c(c1)OCCO2`, the IC50 (NS3) was 76.9 µM (active).
With `O=C(COc1ccc(F)cc1)Nc1ccc2c(c1)OCCO2` the IC50 (cells) was > 67.6 µM (inactive) and the IC50 [11] was > 67.6 µM (inactive).
In the case of `Cc1csc2c(=O)sc(NC(=O)c3cccs3)nc12`, the IC50 [12] is reported as 36.9 µM (inactive) and the IC50 [13] is reported as 8.33 µM (active).
For `C/C(=N\N=C(/N)SC1CC(=O)N(c2ccccc2)C1=O)c1cccs1` (stereo not given), the IC50 [14] was > 69.5 µM (inactive).
With `C[C@H]1CN([C@@H](C)CO)C(=O)c2cc(NC(=O)Nc3ccc(C(F)(F)F)cc3)ccc2O[C@H]1CN(C)S(=O)(=O)c1cccs1` the AC50 [15] was 32.4 µM (active), the AC50 [16] was 29.1 µM (active) and the AC50 [17] was 18 µM (active). The AC50 [18] was > 52 µM (inactive) and the AC50 [19] was 23.1 µM (active).
